The values that follow are results of earlier work, collected in patent publication US20090247493A1, “Regimens for Treatment of Conditions Related to Estrogen Deficiency” (Duramed Pharmaceuticals, Inc., priority 2006, published 2009).

For this data set the following is noted: in a contraceptive regimen.

Regarding `C[C@]12CC[C@@H]3c4ccc(O)cc4CC[C@H]3[C@@H]1CC[C@@H]2O` [17β-estradiol], the “dose roughly equivalent to 30 μg of ethinyl estradiol” value is given as “about 2,000 μg”. As for `C#C[C@]1(O)CC[C@H]2[C@@H]3CCc4cc(OC)ccc4[C@H]3CC[C@@]21C` [mestranol], the “dose roughly equivalent to 30 μg of ethinyl estradiol” value is “about 60 μg”.
